Laboratory results published in patent US20240076347A1, “METHODS FOR PREVENTING FUNGAL INFECTIONS” (Cidara Therapeutics, Inc., priority 2016, published 2024).
“And” between values parts separate entries of the source, which are not always exact repeats. Identical values can stand only once. Numbered stars: 1 amine (or outer) side, 2 acyl side, 3 side chain; on linkers, the order of the positions; unused ones are H or OH. Bridge positions count the residues as written; N and C are the ends. Square brackets hold non-standard residues; d marks the D form. Peptide text beside a SMILES is read from it. * marks the point of attachment. ξ: configuration not given here. Orn(4R-OH,5R-OCH2CH2NMe3+) = C[N+](C)(C)CCO[C@@H](N[*:3])[C@H](O)C[C@H](N[*:1])C(=O)[*:2]; pTerphenylCO(4''-OnC5H11) = CCCCCOc1ccc(-c2ccc(-c3ccc(C(=O)*)cc3)cc2)cc1; hTyr(3S-OH,4S-OH) = N[C@H](C(=O)O)[C@H](O)[C@@H](O)c1ccc(O)cc1; X1 = C[C@H]1CN([*:1])C(C(=O)[*:2])C1O; Hyp = O=C(O)[C@@H]1C[C@@H](O)CN1; ξT = CC(O)C(N)C(=O)O

Columns and labels:
[1] = test system: A. fumigatus ATCC 13073; test: Disseminated aspergillosis in neutropenic ICR mice (Example 14), treatment and prophylaxis; assay type: in vivo, Aspergillus fumigatus
Protocol: Disseminated aspergillosis: ICR mice (6/grp) were made neutropenic by cyclophosphamide on Days −3 (270 mg/kg), +1 and +4 (90 mg/kg). IV infection with A. fumigatus ATCC 13073 (10^4 CFU/mouse) on Day 0. […] Survival monitored for a 10 days. Same model was used for prophylaxis except CD101 was dosed on Days −1, −3 or −5.

[2] = Monkey SC tolerability study; assay type: in vivo, cynomolgus monkeys
Protocol: Therefore, only local tolerability (and PK) of CD101 by SC administration required evaluation. […] Plasma concentrations were then quantified by liquid chromatography with tandem mass spectrometric detection (LC-MS/MS). Bioavailability from SC dosing was calculated by comparing the calculated area under the concentration-time profile (AUC) from SC against the AUC from IV administration of the same dose.
Therefore, a separate study was designed to evaluate the tolerability of a SC dose of CD101 as a highly concentrated solution (100 mg/mL; 30 mg/kg) in two cynomolgus monkeys. […] The drug reaches a maximum concentration within a few hours then remains nearly constant over the course of 10 days.

[3] = test system: C. albicans; test: Neutropenic murine disseminated candidiasis model, PK/PD target determination; assay type: in vivo, Candida albicans
Protocol: Infection model. A neutropenic, murine, disseminated candidiasis model was used for the treatment studies. The mice were rendered neutropenic (polymorphonuclear cell count, <100/mm3) by injecting 150 mg/kg of cyclophosphamide (Mead Johnson Pharmaceuticals, Evansville, IN) subcutaneously 4 days before infection, 100 mg/kg of cyclophosphamide 1 day before infection, and additional cyclophosphamide doses (100 mg/kg) on Day 2 and Day 4 after infection to ensure neutropenia throughout the 168 h (7 d) study period. Three mice were included in each treatment and control group.
The organisms were subcultured on SDA plates 24 h prior to infection. The inoculum was prepared by placing 3 to 5 colonies into 5 ml of sterile pyrogen-free 0.15 M NaCl warmed to 35° C. The final inoculum was adjusted to a 0.6 transmittance at 530 nm. The fungal count of the inoculum determined by viable counts on SDA was 6.1±0.2 log10 CFU/ml.
Disseminated infection with the Candida strains was achieved by injection of 0.1 ml of the inoculum via the lateral tail vein 2 h prior to the start of antifungal therapy. At the end of the study period, the animals were sacrificed by CO2 asphyxiation. The kidneys of each mouse were aseptically removed and placed in 0.15 M NaCl at 4° C. The kidneys were homogenized and serially diluted 1:10, and the aliquots were plated onto SDA for viable fungal colony counts after incubation for 24 h at 35° C. The lower limit of detection was 100 CFU/ml. The results are expressed as the mean CFU/kidney for three mice.
Treatment efficacy and pharmacodynamic target determination of CD101. Neutropenic mice were infected with one of 10 Candida strains as described above. […] Five dose levels that varied from 0.25 to 64 mg/kg were administered once in a 0.2-ml volume by IP route for the 168 h study period. Due to enhanced effect against single isolate, additional studies at 0.0156 and 0.0625 mg/kg was examined for C. glabrata 5592. Groups of three mice were used for each dosing regimen and control group. At the end of the treatment period (168 h), the mice were euthanized, and their kidneys were immediately processed for CFU determination as described above.
Data analysis. A sigmoid dose-effect (Hill) model was used to measure the in vivo potency of CD101. The efficacy endpoints included the dose level required to produce a 24 h net static effect (no change in organism burden compared to that at the start of therapy) and the dose required to achieve a 1-log10 reduction in colony counts (relative to the burden at the start of therapy), when achieved. The maximum response (Emax) was measured as the difference in the number of CFU/kidney relative to that of the untreated control animals. The doses associated with the stasis and 1-log10 endpoint for each strain was calculated using the equation: log10 D=[log10 (E/(Emax−E))/N]+log10 ED50, where D is the drug dose, E is the control growth in untreated animals, Emax is the maximal effect, Nis the slope of the dose-response relationship, and ED50 is the dose needed to achieve 50% of the maximal effect. The associated AUC/MIC targets were then calculated for each strain. […] The calculations were performed using both total and free drug concentrations. The coefficient of determination (R^2) was used to estimate the variance that might be due to regression with the PK/PD index. Kruskal-Wallis one-way analysis of variance (ANOVA) was used to determine if the differences in PK/PD targets were significant between the species.

[4] = assay type: in vivo, Wistar rats
Protocol: Endpoints. The rats were monitored at a frequency appropriate for their clinical condition. Rat weights were recorded at least once daily to ensure animals remained within ethical limits.
Reduction in weight and general loss of condition due to estradiol treatment are also typical in this rat model. Colonization with C. albicans was determined by quantitative culture of daily vaginal lavage samples. Rats were euthanized 9 days post infection and C. albicans determined by quantitative culture of vaginal tissue (including uterine horns).

[5] = Median of 4 C. albicans strains

CCCCCOc1ccc(-c2ccc(-c3ccc(C(=O)N[C@H]4C[C@@H](O)[C@@H](OCC[N+](C)(C)C)NC(=O)C5C(O)[C@@H](C)CN5C(=O)[C@H]([C@@H](C)O)NC(=O)[C@H]([C@H](O)[C@@H](O)c5ccc(O)cc5)NC(=O)[C@@H]5C[C@@H](O)CN5C(=O)C(C(C)O)NC4=O)cc3)cc2)cc1 (stereo partly drawn) [CD101] ({pTerphenylCO(4''-OnC5H11)}-[Orn(4R-OH,5R-OCH2CH2NMe3+)][ξT][Hyp][hTyr(3S-OH,4S-OH)]T[X1]; lactam 1-C)
survival ([1]; prophylaxis): 100%
survival ([1]; prophylaxis, single 5 mg/kg given up to 5 days prior to infection): improved survival depending on day given
survival ([1]; treatment, IV/IP at 0.2, 1 or 5 mg/kg BID×5 d, vs vehicle): significant increase in survival compared to vehicle
survival ([1]; treatment, single 2 mg/kg vs 0.2 mg/kg BID×5 d): Survival was comparable
local (injection site) tolerability ([2]; single 30 mg/kg SC (100 mg/mL)): no sign of irritation or local (injection site) adverse toxicity
bodyweight and food consumption ([2]; single 30 mg/kg SC, 10 days follow-up): no effect on bodyweight or food consumption
1 log kill 24 h Ave Free drug AUC/MIC ([3]; 98-17): 3.92
1 log kill free drug AUC0-168 h/MIC ([3]; 98-17): 27.47
1 log kill total drug AUC0-168 h/MIC ([3]; 98-17): 3433.40
Stasis 24 h Ave free drug AUC/MIC ([3]; 98-17): 2.19
Stasis free drug AUC0-168 h/MIC ([3]; 98-17): 15.35
Stasis total drug AUC0-168 h/MIC ([3]; 98-17): 1918.43
1 log kill dose ([3]; 98-17, single IP dose, 168 h): 2.73 mg/kg
Static dose ([3]; 98-17, single IP dose, 168 h): 1.34 mg/kg
1 log kill 24 h Ave Free drug AUC/MIC ([3]; 98-210): 6.72
1 log kill free drug AUC0-168 h/MIC ([3]; 98-210): 47.01
1 log kill total drug AUC0-168 h/MIC ([3]; 98-210): 5875.95
Stasis 24 h Ave free drug AUC/MIC ([3]; 98-210): 3.70
Stasis free drug AUC0-168 h/MIC ([3]; 98-210): 25.93
Stasis total drug AUC0-168 h/MIC ([3]; 98-210): 3241.65
1 log kill dose ([3]; 98-210, single IP dose, 168 h): 2.28 mg/kg
Static dose ([3]; 98-210, single IP dose, 168 h): 1.06 mg/kg
1 log kill 24 h Ave Free drug AUC/MIC [3]; 580: 3.05
1 log kill free drug AUC0-168 h/MIC [3]; 580: 21.34
1 log kill total drug AUC0-168 h/MIC [3]; 580: 2667.21
Stasis 24 h Ave free drug AUC/MIC [3]; 580: 2.02
Stasis free drug AUC0-168 h/MIC [3]; 580: 14.15
Stasis total drug AUC0-168 h/MIC [3]; 580: 1769.30
1 log kill dose ([3]; 580, single IP dose, 168 h): 2.03 mg/kg
Static dose ([3]; 580, single IP dose, 168 h): 1.20 mg/kg
1 log kill 24 h Ave Free drug AUC/MIC ([3]; K-1): 6.86
1 log kill free drug AUC0-168 h/MIC ([3]; K-1): 48.05
1 log kill total drug AUC0-168 h/MIC ([3]; K-1): 6005.95
Stasis 24 h Ave free drug AUC/MIC ([3]; K-1): 3.65
Stasis free drug AUC0-168 h/MIC ([3]; K-1): 25.58
Stasis total drug AUC0-168 h/MIC ([3]; K-1): 3197.16
1 log kill dose ([3]; K-1, single IP dose, 168 h): 5.26 mg/kg
Static dose ([3]; K-1, single IP dose, 168 h): 2.52 mg/kg
1 log kill 24 h Ave Free drug AUC/MIC ([3]; Mean of 4 C. albicans strains): 5.14
1 log kill dose ([3]; Mean of 4 C. albicans strains): 3.08 mg/kg
1 log kill free drug AUC0-168 h/MIC ([3]; Mean of 4 C. albicans strains): 35.97
1 log kill total drug AUC0-168 h/MIC ([3]; Mean of 4 C. albicans strains): 4495.63
Stasis 24 h Ave free drug AUC/MIC ([3]; Mean of 4 C. albicans strains): 2.89
Stasis free drug AUC0-168 h/MIC ([3]; Mean of 4 C. albicans strains): 20.25
Stasis total drug AUC0-168 h/MIC ([3]; Mean of 4 C. albicans strains): 2531.64
Static dose ([3]; Mean of 4 C. albicans strains): 1.53 mg/kg
1 log kill 24 h Ave Free drug AUC/MIC [3, 5]: 5.32
1 log kill dose [3, 5]: 2.51 mg/kg
1 log kill free drug AUC0-168 h/MIC [3, 5]: 37.24
1 log kill total drug AUC0-168 h/MIC [3, 5]: 4654.68
Stasis 24 h Ave free drug AUC/MIC [3, 5]: 2.92
Stasis free drug AUC0-168 h/MIC [3, 5]: 20.5 and 20.46
Stasis total drug AUC0-168 h/MIC [3, 5]: 2557.79
Static dose [3, 5]: 1.27 mg/kg
kill at high doses ([3]; a number of strains, kidney burden, 168 h): > 2 log10
tolerability ([4]; all treatment doses and durations): well tolerated with no adverse events observed
weight loss ([4]; ovariectomised, estradiol-treated rats): did not seem to be exacerbated
